Assay results: the supplement of paper PMC10307832

Columns and labels:
Assay in all cases: relative viability (nuclei count vs DMSO), 5 days (fraction); higher = more cells survive
Apatinib + AZD7762 = compound: N#CC1(c2ccc(NC(=O)c3cccnc3NCc3ccncc3)cc2)CCCC1 [Apatinib] + NC(=O)Nc1cc(-c2cccc(F)c2)sc1C(=O)N[C@H]1CCCNC1 [AZD7762] (partner 0.2 µM)
How it was run: (§1)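 Lung cancer cell lines in 1536-well plates got either a single drug or a fixed anchor-drug dose together with five library-drug doses (not always all listed) in √10 steps, by pin tool, on the day after seeding. Nuclei were counted after 5 days, and relative viability is the treated-to-vehicle ratio of nuclei counts. Values are medians of duplicate plates.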

Metformin + Pictilisib = compound: CN(C)C(=N)NC(=N)N [Metformin] + CS(=O)(=O)N1CCN(Cc2cc3nc(-c4cccc5[nH]ncc45)nc(N4CCOCC4)c3s2)CC1 [Pictilisib] (partner 1 µM)
How it was run: as §1

Metformin + Decitabine = compound: CN(C)C(=N)NC(=N)N [Metformin] + Nc1ncn([C@H]2C[C@H](O)[C@@H](CO)O2)c(=O)n1 [Decitabine] (partner 2 µM)
How it was run: as §1

Apatinib + Trametinib = compound: N#CC1(c2ccc(NC(=O)c3cccnc3NCc3ccncc3)cc2)CCCC1 [Apatinib] + CC(=O)Nc1cccc(-n2c(=O)n(C3CC3)c(=O)c3c(Nc4ccc(I)cc4F)n(C)c(=O)c(C)c32)c1 [Trametinib] (partner 0.02 µM)
How it was run: as §1

| Cell Line | relative viability (Apatinib + AZD7762; first compound 0.08 µM) | relative viability (Apatinib + AZD7762; first compound 0.253 µM) | relative viability (Apatinib + AZD7762; first compound 0.8 µM) | relative viability (Apatinib + AZD7762; first compound 2.53 µM) | relative viability (Apatinib + AZD7762; first compound 8 µM) | relative viability (Metformin + Pictilisib; first compound 10 µM) | relative viability (Metformin + Pictilisib; first compound 31.62 µM) | relative viability (Metformin + Pictilisib; first compound 100 µM) | relative viability (Metformin + Pictilisib; first compound 316.23 µM) | relative viability (Metformin + Pictilisib; first compound 1000 µM) | relative viability (Metformin + Decitabine; first compound 10 µM) | relative viability (Metformin + Decitabine; first compound 31.62 µM) | relative viability (Metformin + Decitabine; first compound 100 µM) | relative viability (Metformin + Decitabine; first compound 316.23 µM) | relative viability (Metformin + Decitabine; first compound 1000 µM) | relative viability (Apatinib + Trametinib; first compound 0.08 µM) | relative viability (Apatinib + Trametinib; first compound 0.253 µM) | relative viability (Apatinib + Trametinib; first compound 0.8 µM) | relative viability (Apatinib + Trametinib; first compound 2.53 µM) | relative viability (Apatinib + Trametinib; first compound 8 µM) |
| --- | --- | --- | --- | --- | --- | --- | --- | --- | --- | --- | --- | --- | --- | --- | --- | --- | --- | --- | --- | --- |
| NCI-H2126 | 1.02 | 0.924 | 0.9 | 0.973 | 0.933 | 0.519 | 0.474 | 0.514 | 0.472 | 0.485 | 0.554 | 0.592 | 0.557 | 0.571 | 0.562 | 0.605 | 0.562 | 0.569 | 0.538 | 0.415 |
| NCI-H727 | 0.487 | – | 0.548 | 0.456 | 0.49 | 0.389 | 0.514 | 0.6 | 0.317 | 0.451 | 0.789 | 0.897 | 0.89 | – | 1.1 | 0.386 | – | 0.386 | 0.416 | 0.342 |
| LXF-289 | 1.13 | 1.1 | 1.09 | 1.02 | 1.02 | 0.73 | 0.685 | 0.746 | 0.661 | 0.76 | 0.312 | 0.367 | 0.345 | 0.312 | 0.378 | 0.667 | 0.705 | 0.638 | 0.608 | 0.56 |
| HCC-15 | 1.13 | 1.23 | 1.12 | 1.15 | 1.05 | 0.625 | 0.789 | 0.746 | 0.75 | 0.823 | 0.548 | 0.636 | 0.703 | 0.662 | 0.703 | 0.393 | 0.295 | 0.327 | 0.367 | 0.308 |
| NCI-H2085 | 0.97 | 1 | 0.925 | 0.846 | 0.699 | 0.408 | 0.492 | 0.472 | 0.439 | 0.545 | 0.498 | 0.453 | 0.484 | 0.531 | 0.524 | 0.608 | 0.53 | 0.39 | 0.576 | 0.426 |
